Experimental data: PubChem BioAssay AID720588 (Broad Institute, 2013)
Activity calls are given as the source filed them.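 The calls were made as follows: active = fitted curve falls past a set limit of signal loss at no more than twice the top dose; inconclusive = flat fit between 30 and 70% signal loss, or poor fit; inactive = signal rise, flat within 30%, or crossing too high.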

Test: HEK293T cell cytotoxicity, dose response, cytotoxicity control, CellTiter-Glo luminescence, cherry-pick, set 3 (AID 720588)
Settings: HEK293T viability, CellTiter-Glo ATP luminescence, 72 h; at 23.5 µM (top of the series)

Row | SMILES | activity change, negative = cytotoxicity
1 | C[C@H](CO)N1C[C@H](C)[C@H](CN(C)Cc2ccccc2)Oc2ccc(NC(=O)CCCCCC(=O)Nc3ccccc3N)cc2CC1=O | -0.084% (inactive)

Same assay, conditions: HEK293T viability, CellTiter-Glo ATP luminescence, 72 h; at 26 µM (top of the series)

Row | SMILES | activity change, negative = cytotoxicity
2 | CC1(C(=O)NCc2ccco2)Cc2c(-c3cccc(C(N)=O)c3)ccnc2O1 (stereo not given) | -5.89% (inactive)
3 | CN1C/C(=C/c2ccsc2)C(=O)/C(=C/c2ccsc2)C1 | -30% (inactive)
4 | CN(C)c1ccc2c(c1)[C@@H]1C[C@@H](CC(=O)NCc3ccc(Oc4ccccc4)cc3)O[C@H](CO)[C@@H]1O2 | -15.8% (inactive)
5 | CCc1cnc(N2[C@H](C#N)[C@H](c3ccc(C#Cc4ccccc4F)cc3)[C@H]2CO)s1 | -15.3% (inactive)
6 | CC(=O)Nc1cc(C(=O)NCc2ccco2)ccc1Sc1ccc(F)cc1 | 12.1% (inactive)
7 | CCOc1cc(N2CCC(O)CC2)ccc1Nc1ncc2c(n1)N(C)c1ccccc1C(=O)N2C | 22.8% (inactive)
8 | O=c1[nH]c(=O)n(C2C[C@H](O)[C@@H](CO)O2)cc1C(F)(F)F (stereo not given in full) | -9.97% (inactive)
9 | CCOc1cc2[nH]c(=S)n(Cc3ccc(C(=O)N4CCN(C)CC4)cc3)c(=O)c2cc1OCC | -20.5% (inactive)
10 | COC(=O)C[C@@H]1CC[C@@H]2[C@@H](COc3ccc(NC(=O)Nc4cccc(F)c4)cc3C(=O)N2C)O1 | -28.1% (inactive)
11 | COC(=O)C[C@@H]1CC[C@@H]2[C@@H](COc3ccc(NC(=O)Nc4ccc(C#N)cc4)cc3C(=O)N2C)O1 | 47.6% (inactive)
12 | Cc1ccc2oc(/N=C(\N)NC(=O)C(C)(C)C)nc2c1 | -11% (inactive)
13 | COC(=O)C[C@@H]1CC[C@H]2[C@H](COc3ccc(NC(=O)Nc4cc(C)cc(C)c4)cc3C(=O)N2C)O1 | -2.27% (inactive)
14 | COC(=O)C[C@@H]1CC[C@@H]2[C@@H](COc3ccc(NC(=O)Nc4cccc(C#N)c4)cc3C(=O)N2C)O1 | 16.9% (inactive)
15 | O=C(CN1C(=O)C(=O)c2ccccc21)c1ccc(Cl)cc1 | -23.4% (inactive)
16 | CCOc1ccc(/C=C2\CCc3ccccc3C2=O)cc1 | -4.04% (inactive)
17 | CCNC(=O)[C@@H]1[C@@H](CO)[C@@H]2Cn3c(ccc(C4=CCCCC4)c3=O)[C@H]1N2CC | -16.5% (inactive)
18 | C/C=C/c1ccc([C@H]2[C@@H](CO)N3C(=O)CN(S(=O)(=O)c4cccc(F)c4)C[C@@H]23)cc1 | 34.3% (inactive)
19 | O=C(CCCN1C(=O)S/C(=C\c2ccccc2)C1=O)NNC(=O)c1ccccc1O | -28.3% (inactive)
20 | CN(C)Cc1c(O)ccc2c1O/C(=C\C=C\c1ccccc1)C2=O | -32.1% (inactive)
21 | COc1ccc(C=NNc2nc3ccccc3s2)cc1 | -21.8% (inactive)
22 | CCc1ccc(/C=C2\SC(=S)N(CCCC(=O)Nc3cc(C)on3)C2=O)cc1 | -27.1% (inactive)
23 | O=C1C(=O)N(Cc2cccs2)c2ccccc21 | -25.8% (inactive)
24 | COc1ccc(Nc2oc(COc3ccccc3OC)nc2C#N)cc1 | -13.8% (inactive)
25 | Cc1nc2ncccn2c1-c1csc(Nc2ccc(O)cc2)n1 | 23.7% (inactive)
26 | Nc1ccn([C@@H]2O[C@H](CO)[C@@H](O)C2O)c(=O)n1 (stereo not given in full) | -12.5% (inactive)
27 | Cc1ccc(NC(=O)COC(=O)c2ccc3c(c2)OCO3)cc1S(=O)(=O)N1CCCCC1 | -15.5% (inactive)
28 | COC(=O)C[C@@H]1CC[C@@H]2[C@H](COc3ccc(NC(=O)c4ccc(C(F)(F)F)cc4)cc3C(=O)N2C)O1 | -2.65% (inactive)

Row | SMILES | activity change, negative = cytotoxicity
29 | COc1cc2oc3cc(C#Cc4ccc(N)cc4)ccc3c(=O)c2cc1OC | -4.88% (inactive)
30 | CCOc1ccc(-c2noc(CCC(=O)O)n2)cc1 | -18.9% (inactive)
31 | Cc1ccc(NC(=O)CCN2CCCCC2)cc1 | 17.2% (inactive)
32 | Nc1nc(N)c2c(ccc3nccc32)[nH]1 | -30.1% (inactive)
33 | COc1ccccc1NS(=O)(=O)c1cc(NC(=O)c2cc3ccccc3oc2=O)ccc1C | -6.46% (inactive)
34 | Cc1ccc(S(=O)(=O)Nc2ccc3c(c2)C(=O)N([C@@H](C)CO)C[C@@H](C)[C@H](CN(C)Cc2ccc(C(F)(F)F)cc2)OCCCC[C@H](C)O3)cc1 | -33.3% (inactive)
35 | COc1ccc(/C=C2/NC(=O)N(CC(=O)Nc3cccc(C)c3)C2=O)cc1O | -15.3% (inactive)
36 | COc1ccc(/C=C2\SC(=S)N(CCCC(=O)Nc3ccc(O)cc3)C2=O)cc1 | -27.6% (inactive)
37 | COC(=O)C[C@H]1CC[C@H]2[C@@H](COc3ccc(NC(=O)Nc4cccc(Cl)c4)cc3C(=O)N2C)O1 | -24.3% (inactive)
38 | O=C1NC(=O)N(CCc2ccc(F)cc2)C(=O)/C1=C/C=C/c1ccccc1 | -10.7% (inactive)
39 | C[C@@H]1CN([C@H](C)CO)C(=O)c2cc(NC(=O)CCCCCC(=O)Nc3ccccc3N)ccc2O[C@H]1CN(C)S(=O)(=O)c1ccc(Cl)cc1 | -21.5% (inactive)
40 | COC(=O)C[C@H]1CC[C@@H](NC(=O)Nc2ccc(C(F)(F)F)cc2)[C@H](CO)O1 | 9.14% (inactive)
41 | COc1ccc(N=C(NN)c2ccc3ccccc3n2)cc1 | -17.4% (inactive)
42 | CC(=O)ON=C1C=CC(=C(C#N)c2ccccc2)C=C1 | -28.3% (inactive)
43 | CCc1ccc2oc(C(=O)N3CCN(c4ccccc4OC)CC3)cc(=O)c2c1 | -13.2% (inactive)
44 | N#C[C@H]1[C@H](c2ccc(C#Cc3ccccc3F)cc2)[C@@H](CO)N1C(=O)C1CCOCC1 | -4.64% (inactive)
45 | N/C(Cc1nc(-c2ccc(F)cc2)cs1)=N\O | -17.4% (inactive)
46 | COc1cc(/C=N\Nc2nc(-c3ccc(C)cc3)c(NC(C)=O)s2)ccc1O | -4.57% (inactive)
47 | CCOC(=O)Cc1ccc(NC(=O)c2ccccc2Br)cc1 | -14.3% (inactive)
48 | O=c1oc2cc(O)ccc2s1 | -7.52% (inactive)
49 | C[C@@H]1CN([C@@H](C)CO)C(=O)Cc2cc(NC(=O)Cn3cnnn3)ccc2O[C@@H]1CN(C)Cc1ccc(Oc2ccccc2)cc1 | 14.3% (inactive)
50 | CC(=O)c1ccc(N(C(=O)Cn2nnc3ccccc32)C(C(=O)NCc2ccccc2)c2ccccn2)cc1 (stereo not given) | -21.8% (inactive)
51 | CN(c1ccc(NC(=O)CCc2c[nH]c3ccccc23)cc1)c1ccccn1 | -4.8% (inactive)
52 | CC(C)(C)c1ccc(Oc2ccc(N)cn2)cc1 | -15.7% (inactive)
53 | CCC(C)Cn1c(O)cc2nn(-c3nc4ccccc4s3)c(=O)c-2c1C (stereo not given) | 3.58% (inactive)
54 | Cc1ccc(/C=C2\SC(=S)N(CCCC(=O)NNC(=O)c3ccccc3O)C2=O)cc1 | -14.6% (inactive)
55 | COc1ccc(C(=O)Nc2cccc(C(=O)N/N=C/c3ccc(OC)cc3OC)c2)cc1 | -15.7% (inactive)
